Numbering of substitutions follows the chain as printed.

The results in this text go back to publication PMC5355235, “FLT3 activating mutations display differential sensitivity to multiple tyrosine kinase inhibitors” (Oncotarget, 2017).

Holding throughout (type): cell-based
Assay [1] concerns the target T1, wild-type FLT3 (Homo sapiens, UniProt P36888).
T1 construct: expressed in transfected cells; host or cells: BaF3
T1 sequence (P36888 27-993): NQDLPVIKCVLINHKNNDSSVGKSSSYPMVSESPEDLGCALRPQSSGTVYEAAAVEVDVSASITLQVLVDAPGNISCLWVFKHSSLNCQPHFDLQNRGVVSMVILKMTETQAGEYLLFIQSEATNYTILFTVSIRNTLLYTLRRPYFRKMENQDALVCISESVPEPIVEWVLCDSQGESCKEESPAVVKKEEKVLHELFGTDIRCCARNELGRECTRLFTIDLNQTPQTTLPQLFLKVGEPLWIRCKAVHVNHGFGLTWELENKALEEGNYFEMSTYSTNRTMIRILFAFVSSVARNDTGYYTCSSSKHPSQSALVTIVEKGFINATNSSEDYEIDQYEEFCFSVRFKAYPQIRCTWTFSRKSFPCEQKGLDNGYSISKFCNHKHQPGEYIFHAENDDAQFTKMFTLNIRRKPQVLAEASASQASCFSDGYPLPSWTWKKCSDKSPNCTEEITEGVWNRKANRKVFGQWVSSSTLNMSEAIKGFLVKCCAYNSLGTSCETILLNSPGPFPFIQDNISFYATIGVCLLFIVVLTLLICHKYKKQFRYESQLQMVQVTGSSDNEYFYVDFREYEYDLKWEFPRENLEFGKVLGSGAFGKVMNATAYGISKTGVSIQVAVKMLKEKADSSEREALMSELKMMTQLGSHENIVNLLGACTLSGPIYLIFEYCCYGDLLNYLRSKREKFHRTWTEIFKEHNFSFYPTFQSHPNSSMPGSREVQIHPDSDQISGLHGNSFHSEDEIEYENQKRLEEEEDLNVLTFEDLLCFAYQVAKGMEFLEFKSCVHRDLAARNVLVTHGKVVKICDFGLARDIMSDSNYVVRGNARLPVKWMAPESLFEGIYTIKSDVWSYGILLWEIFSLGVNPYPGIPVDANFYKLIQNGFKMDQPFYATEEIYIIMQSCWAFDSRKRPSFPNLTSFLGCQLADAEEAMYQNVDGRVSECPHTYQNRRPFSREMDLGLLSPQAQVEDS
The assay is described as follows: Wild-type FLT3 autophosphorylation in FL-stimulated BaF3/WT-FLT3 cells. The conditions noted are these: TKI 1 h, then 25 ng/ml human FLT3 ligand 15 min.
Procedure: Figure 3 Inhibition of wild-type FLT3 signaling pathways by FLT3 TKI BaF3/WT-FLT3 cells were treated with FLT3 TKI at the indicated concentrations for 1 h at 37°C then stimulated with 25ng/ml of human FLT3 ligand for 15 minutes, followed by immunoprecipitation for FLT3, SDS-PAGE and WB for FLT3 and phospho-FLT3 (PFLT3).
Activated FLT3 expression was measured by performing immunoprecipitation, SDS-PAGE and Western blotting as previously described. […] Specifically, 10^7 cells were washed in medium and treated with inhibitor for 1 h followed by stimulation with 25 ng/ml of FLT3 ligand for 15 minutes where indicated. Cells were washed twice with ice-cold PBS and lysed in 300 µl of NP-40 lysis buffer (150 mM NaCl, 20 mM TrisHCl (pH7.4), 10% glycerol, 1% NP-40, 10 mM EDTA, 100 mM NaF) with 2 mM Na3VO4 and protease inhibitors (Complete Tablets, Roche, Mannheim, Germany) at 4°C for 30 m. Cell lysate was harvested by centrifugation at 13,000 × g for 30 m at 4°C. FLT3 S-18 antibody was incubated with 500 µg lysate overnight at 4°C followed by immunoprecipitation with protein A-agarose beads for 2 h. Beads were washed once in Tris buffered saline with 1% Tween-20 (TBST) and twice in TBS. […] Proteins were transferred to a polyvinyl diflouride (PVDF) membrane (Millipore, Bedford, MA, USA) and detected by 4G10 phosphotyrosine antibody and anti-FLT3 S-18 antibody. […]

Assay [2] concerns the target T2, FLT3 D835Y (Homo sapiens, UniProt P36888, D835Y).
T2 construct: expressed in transfected cells; host or cells: BaF3
T2 sequence (P36888 27-993 D835Y): T1 sequence (P36888 27-993) with D809Y
Briefly: FLT3 autophosphorylation, immunoprecipitation/Western blot, D835Y. The following applies: FLT3 D835Y cells, highest concentrations tested, 1 h. The protocol:
Activated FLT3 expression was measured by performing immunoprecipitation, SDS-PAGE and Western blotting as previously described. Specifically, 10^7 cells were washed in medium and treated with inhibitor for 1 h followed by stimulation with 25 ng/ml of FLT3 ligand for 15 minutes where indicated. Cells were washed twice with ice-cold PBS and lysed in 300 µl of NP-40 lysis buffer (150 mM NaCl, 20 mM TrisHCl (pH7.4), 10% glycerol, 1% NP-40, 10 mM EDTA, 100 mM NaF) with 2 mM Na3VO4 and protease inhibitors (Complete Tablets, Roche, Mannheim, Germany) at 4°C for 30 m. Cell lysate was harvested by centrifugation at 13,000 × g for 30 m at 4°C. FLT3 S-18 antibody was incubated with 500 µg lysate overnight at 4°C followed by immunoprecipitation with protein A-agarose beads for 2 h. Beads were washed once in Tris buffered saline with 1% Tween-20 (TBST) and twice in TBS. Samples were boiled in sodium dodecyl sulfate (SDS) sample buffer prior to separating in a 8% SDS-polyacrylamide gel (SDS-PAGE). Proteins were transferred to a polyvinyl diflouride (PVDF) membrane (Millipore, Bedford, MA, USA) and detected by 4G10 phosphotyrosine antibody and anti-FLT3 S-18 antibody. FLT3 was visualized using the Odyssey Infra Red Imaging System from Li-Cor (Lincoln, NE, USA) using AlexaFluor 680 goat anti-mouse and AlexaFluor 800 goat anti-rabbit antibodies. […]
For orientation: In western blotting, separated proteins are transferred to a membrane and probed.

Assay [3] concerns FLT3/ITD. Briefly: FLT3/ITD autophosphorylation and signaling pathways, Western blot. The conditions noted are these: FLT3/ITD cells, 1 h, concentration-dependent. The protocol: Activated FLT3 expression was measured by performing immunoprecipitation, SDS-PAGE and Western blotting as previously described. Specifically, 10^7 cells were washed in medium and treated with inhibitor for 1 h followed by stimulation with 25 ng/ml of FLT3 ligand for 15 minutes where indicated. Cells were washed twice with ice-cold PBS and lysed in 300 µl of NP-40 lysis buffer (150 mM NaCl, 20 mM TrisHCl (pH7.4), 10% glycerol, 1% NP-40, 10 mM EDTA, 100 mM NaF) with 2 mM Na3VO4 and protease inhibitors (Complete Tablets, Roche, Mannheim, Germany) at 4°C for 30 m. Cell lysate was harvested by centrifugation at 13,000 × g for 30 m at 4°C. FLT3 S-18 antibody was incubated with 500 µg lysate overnight at 4°C followed by immunoprecipitation with protein A-agarose beads for 2 h. Beads were washed once in Tris buffered saline with 1% Tween-20 (TBST) and twice in TBS. Samples were boiled in sodium dodecyl sulfate (SDS) sample buffer prior to separating in a 8% SDS-polyacrylamide gel (SDS-PAGE). Proteins were transferred to a polyvinyl diflouride (PVDF) membrane (Millipore, Bedford, MA, USA) and detected by 4G10 phosphotyrosine antibody and anti-FLT3 S-18 antibody. FLT3 was visualized using the Odyssey Infra Red Imaging System from Li-Cor (Lincoln, NE, USA) using AlexaFluor 680 goat anti-mouse and AlexaFluor 800 goat anti-rabbit antibodies. Phosphorylation of the FLT3 downstream signaling mediators, STAT5, AKT and MAP kinase was investigated by loading 50 µg of whole cell lysate and probing with the indicated antibodies. The membrane was washed and incubated in goat anti-rabbit secondary antibody conjugated to horseradish peroxidase followed by enhanced chemiluminescence (ECL). The membrane was subsequently stripped in 200 mM glycine buffer, pH 2.5 with 0.1% Tween-20 and reprobed for STAT5, AKT and MAP kinase expression using the respective antibodies.

`Cc1cc2ncc(-c3ccccc3)nc2cc1C` [AG1295] returned an IC50 in assay [1] of 500 nM. Moreover, the “Inhibition of FLT3 autophosphorylation” value in assay [2] was “markedly reduced or absent inhibition”. Besides, the “Inhibition of FLT3 autophosphorylation and phosphorylation of STAT5, AKT and Map kinase” value in assay [3] is “inhibited FLT3 autophosphorylation”.

The IC50 is the midpoint of a concentration-inhibition curve. The low end stands for inhibition by little substance, the high end for a need for much substance.
